In the NIST ThermoML archive (doi:10.1016/j.jct.2011.01.008):

What was measured:
[1] = xn = mol fraction of the nth substance listed; details: 96 kPa, Liquid, Vibrating tube method
[2] = refractive index (Na D-line) (dimensionless); xn = mol fraction of the nth substance listed; details: 298.15 K, 96 kPa, Liquid, Standard Abbe refractometry

CCCCC=O [pentanal] + CCOS(=O)(=O)[O-].CCn1cc[n+](C)c1
[1]
Details | mass density [kg/m3]
288.15 K, x1 = 0.0792 | 1218.05
288.15 K, x1 = 0.101 | 1213.67
288.15 K, x1 = 0.3008 | 1168.57
288.15 K, x1 = 0.4074 | 1139.93
288.15 K, x1 = 0.6047 | 1073.97
288.15 K, x1 = 0.7012 | 1036.82
288.15 K, x1 = 0.897 | 935.22
288.15 K, x1 = 0.9513 | 896.87
288.15 K, x1 = 1 | 814.15
288.16 K, x1 = 0.2039 | 1191.69
288.16 K, x1 = 0.5048 | 1109.32
288.16 K, x1 = 0.8024 | 990.74
293.14 K, x1 = 0.0792 | 1215
293.14 K, x1 = 1 | 809.45
293.15 K, x1 = 0.101 | 1210.75
293.15 K, x1 = 0.2039 | 1188.69
293.15 K, x1 = 0.3008 | 1165.47
293.15 K, x1 = 0.4074 | 1136.9
293.15 K, x1 = 0.5048 | 1106.25
293.15 K, x1 = 0.6047 | 1070.53
293.15 K, x1 = 0.7012 | 1033.26
293.15 K, x1 = 0.8024 | 986.74
293.15 K, x1 = 0.897 | 931.08
293.15 K, x1 = 0.9513 | 892.5
298.14 K, x1 = 0.0792 | 1211.93
298.14 K, x1 = 0.101 | 1207.59
298.14 K, x1 = 0.2039 | 1185.49
298.14 K, x1 = 0.3008 | 1162.15
298.14 K, x1 = 0.4074 | 1133.5
298.14 K, x1 = 0.5048 | 1102.7
298.14 K, x1 = 0.6047 | 1066.69
298.14 K, x1 = 0.7012 | 1029.35
298.14 K, x1 = 0.8024 | 982.52
298.14 K, x1 = 0.897 | 926.62
298.14 K, x1 = 0.9513 | 887.82
298.14 K, x1 = 1 | 804.73
303.14 K, x1 = 0.101 | 1204.47
303.14 K, x1 = 0.2039 | 1182.28
303.14 K, x1 = 0.3008 | 1158.83
303.14 K, x1 = 0.4074 | 1130.07
303.14 K, x1 = 0.5048 | 1099.13
303.14 K, x1 = 0.6047 | 1062.78
303.14 K, x1 = 0.7012 | 1025.33
303.14 K, x1 = 0.8024 | 978.11
303.14 K, x1 = 0.897 | 921.84
303.14 K, x1 = 0.9513 | 882.85
303.15 K, x1 = 0.0792 | 1208.72
303.15 K, x1 = 1 | 799.97
308.14 K, x1 = 0.101 | 1201.4
308.14 K, x1 = 0.2039 | 1179.03
308.14 K, x1 = 0.4074 | 1126.55
308.14 K, x1 = 0.5048 | 1095.35
308.14 K, x1 = 0.6047 | 1058.77
308.14 K, x1 = 0.7012 | 1021.17
308.14 K, x1 = 0.897 | 916.87
308.14 K, x1 = 0.9513 | 877.74
308.15 K, x1 = 0.0792 | 1205.39
308.15 K, x1 = 0.3008 | 1155.36
308.15 K, x1 = 0.8024 | 973.48
308.15 K, x1 = 1 | 795.17
313.14 K, x1 = 0.0792 | 1201.93
313.14 K, x1 = 0.2039 | 1175.7
313.14 K, x1 = 0.4074 | 1122.78
313.14 K, x1 = 0.5048 | 1091.33
313.14 K, x1 = 0.6047 | 1054.63
313.14 K, x1 = 0.7012 | 1016.96
313.14 K, x1 = 0.897 | 911.86
313.14 K, x1 = 0.9513 | 872.76
313.14 K, x1 = 1 | 790.33
313.15 K, x1 = 0.101 | 1198.11
313.15 K, x1 = 0.3008 | 1151.83
313.15 K, x1 = 0.8024 | 966.65
318.14 K, x1 = 0.0792 | 1198.39
318.14 K, x1 = 0.2039 | 1172.28
318.14 K, x1 = 0.5048 | 1087.33
318.14 K, x1 = 0.6047 | 1050.4
318.14 K, x1 = 0.7012 | 1012.64
318.14 K, x1 = 0.8024 | 962.44
318.14 K, x1 = 0.897 | 906.82
318.14 K, x1 = 0.9513 | 867.68
318.14 K, x1 = 1 | 785.46
318.15 K, x1 = 0.101 | 1194.8
318.15 K, x1 = 0.3008 | 1148.23
318.15 K, x1 = 0.4074 | 1119.06
323.14 K, x1 = 0.0792 | 1195.73
323.14 K, x1 = 0.2039 | 1168.79
323.14 K, x1 = 0.5048 | 1083.27
323.14 K, x1 = 0.6047 | 1046.09
323.14 K, x1 = 0.8024 | 959.29
323.14 K, x1 = 0.9513 | 862.54
323.14 K, x1 = 1 | 780.55
323.15 K, x1 = 0.101 | 1191.43
323.15 K, x1 = 0.3008 | 1144.59
323.15 K, x1 = 0.4074 | 1115.15
323.15 K, x1 = 0.7012 | 1008.39
323.15 K, x1 = 0.897 | 901.88

[2]
Details | refractive index
x1 = 0.0792 | 1.4793
x1 = 0.101 | 1.4788
x1 = 0.2039 | 1.4759
x1 = 0.3008 | 1.4718
x1 = 0.4074 | 1.4672
x1 = 0.5048 | 1.4621
x1 = 0.6047 | 1.4554
x1 = 0.7012 | 1.4486
x1 = 0.8024 | 1.4403
x1 = 0.897 | 1.431
x1 = 0.9513 | 1.4231
x1 = 1 | 1.396
